From patent US20260294922A1, “Inhibitors of JUN N-Terminal Kinases (JNK1, JNK2, and/or JNK3) and Mitogen-Activated Protein Kinases (MAPK8, MAPK9, and/or MAPK10) and Methods of Using Same” (Baylor College of Medicine, priority 2023, published 2026)
Converted amounts (≈) assume the structure as drawn.

Columns and labels:
JNK3 [1] = target: T1, JNK3 (Homo sapiens, UniProt P53779); assay: JNK3 kinase (intrinsic ATPase, Kinase-Glo) assay; assay type: biochemical; details: Table 3a; read-out: Kd JNK3
T1 sequence (P53779 whole entry): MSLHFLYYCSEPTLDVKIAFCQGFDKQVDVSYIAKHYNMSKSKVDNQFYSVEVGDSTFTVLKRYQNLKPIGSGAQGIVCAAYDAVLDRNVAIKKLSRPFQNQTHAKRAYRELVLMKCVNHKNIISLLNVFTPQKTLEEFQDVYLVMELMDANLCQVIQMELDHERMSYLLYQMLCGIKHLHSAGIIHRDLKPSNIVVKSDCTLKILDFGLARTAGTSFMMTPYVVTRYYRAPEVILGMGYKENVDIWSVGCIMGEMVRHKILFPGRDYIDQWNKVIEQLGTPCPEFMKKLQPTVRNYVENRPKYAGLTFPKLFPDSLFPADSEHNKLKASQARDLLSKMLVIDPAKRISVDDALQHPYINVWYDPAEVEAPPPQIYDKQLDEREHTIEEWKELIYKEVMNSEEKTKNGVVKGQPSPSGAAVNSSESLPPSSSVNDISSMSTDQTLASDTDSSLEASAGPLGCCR

DYRK2 = target: T2, DYRK2 (Homo sapiens, UniProt Q92630); assay: ThermoFisher SelectScreen, DYRK2; assay type: binding; details: Table 4
T2 construct: purchased ThermoFisher (SelectScreen)
T2 sequence (Q92630 1-601): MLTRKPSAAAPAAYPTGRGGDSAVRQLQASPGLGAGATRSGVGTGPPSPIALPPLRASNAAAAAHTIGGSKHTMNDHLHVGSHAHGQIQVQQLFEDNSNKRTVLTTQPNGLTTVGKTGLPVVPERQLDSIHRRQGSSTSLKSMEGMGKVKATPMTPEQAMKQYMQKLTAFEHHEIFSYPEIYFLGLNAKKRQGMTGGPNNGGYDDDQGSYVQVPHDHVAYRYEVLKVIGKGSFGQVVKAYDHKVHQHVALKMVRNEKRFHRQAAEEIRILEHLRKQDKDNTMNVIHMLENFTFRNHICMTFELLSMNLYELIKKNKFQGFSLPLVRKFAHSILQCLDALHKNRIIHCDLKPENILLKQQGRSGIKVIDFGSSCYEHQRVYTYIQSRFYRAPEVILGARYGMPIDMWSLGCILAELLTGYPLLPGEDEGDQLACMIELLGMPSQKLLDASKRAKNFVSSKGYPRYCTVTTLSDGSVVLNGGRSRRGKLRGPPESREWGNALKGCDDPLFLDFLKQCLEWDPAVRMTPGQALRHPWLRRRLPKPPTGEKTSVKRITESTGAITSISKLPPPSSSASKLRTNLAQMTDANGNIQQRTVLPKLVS
Procedure: (§1) To mitigate violation of the linear initial velocity principle, which is a problem in end-point assays when doing dose-responses, the enzyme concentration was carefully optimized, in a total assay volume of 25 μL. The assay was performed using 10 μM ATP, 0.02% Tween-20, kinase buffer from Cell Signaling (#9802) in white 384-well plates. The kinase reaction was done for 30 or 60 min at 30° C., and detection of leftover ATP was measured according to Promega's protocol. […] Fractional activities were obtained from normalized data. Non-linear regression (GraphPad Prism7) and a modified Morrison equation for tight binding was used to determine apparent Ki values for inhibitors, assuming no particular mode of inhibition. An orthogonal binding assay (LanthaScreen) was outsourced to ThermoFisher Scientific's SelectScreen Services to determine IC50 values.
(§2) One of the earliest compounds to be synthesized with favorable enzymatic activity towards JNK1 and JNK3 was CDD-2346. A KINOMEscan was performed for CDD-2346 to establish whether the selectivity of this chemical scaffold was suitable or required optimization. […] To confirm that the activity against each kinase was a true result and not a false positive, CDD-2346 was evaluated in kinase assays using ThermoFisher SelectScreen platform. The results from these assays are provided herein (Table 4). The important innovative steps described are the optimization of selectivity a) for JNK isoforms; b) for kinases considered “in-pathway”; and c) to avoid kinases considered “out-of-pathway”.

CSNK1A1 = target: T3, CSNK1A1 (Homo sapiens, UniProt P48729); assay: ThermoFisher SelectScreen, CSNK1A1; assay type: binding; details: Table 4
T3 construct: purchased ThermoFisher (SelectScreen)
T3 sequence (P48729 whole entry): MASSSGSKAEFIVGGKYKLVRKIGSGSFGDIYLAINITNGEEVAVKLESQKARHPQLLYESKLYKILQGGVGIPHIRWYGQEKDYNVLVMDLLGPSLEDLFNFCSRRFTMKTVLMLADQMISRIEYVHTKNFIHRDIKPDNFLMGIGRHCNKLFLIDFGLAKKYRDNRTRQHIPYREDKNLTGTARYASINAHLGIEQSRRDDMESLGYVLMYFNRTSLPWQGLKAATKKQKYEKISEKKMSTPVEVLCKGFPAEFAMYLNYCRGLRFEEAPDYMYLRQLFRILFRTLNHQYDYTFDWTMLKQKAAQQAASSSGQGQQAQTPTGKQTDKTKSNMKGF
Procedure: as §1, §2

MYLK = target: T4, MYLK (Homo sapiens, UniProt Q15746); assay: ThermoFisher SelectScreen, MYLK; assay type: binding; details: Table 4
T4 construct: purchased ThermoFisher (SelectScreen, outsourced service)
T4 sequence (Q15746 whole entry): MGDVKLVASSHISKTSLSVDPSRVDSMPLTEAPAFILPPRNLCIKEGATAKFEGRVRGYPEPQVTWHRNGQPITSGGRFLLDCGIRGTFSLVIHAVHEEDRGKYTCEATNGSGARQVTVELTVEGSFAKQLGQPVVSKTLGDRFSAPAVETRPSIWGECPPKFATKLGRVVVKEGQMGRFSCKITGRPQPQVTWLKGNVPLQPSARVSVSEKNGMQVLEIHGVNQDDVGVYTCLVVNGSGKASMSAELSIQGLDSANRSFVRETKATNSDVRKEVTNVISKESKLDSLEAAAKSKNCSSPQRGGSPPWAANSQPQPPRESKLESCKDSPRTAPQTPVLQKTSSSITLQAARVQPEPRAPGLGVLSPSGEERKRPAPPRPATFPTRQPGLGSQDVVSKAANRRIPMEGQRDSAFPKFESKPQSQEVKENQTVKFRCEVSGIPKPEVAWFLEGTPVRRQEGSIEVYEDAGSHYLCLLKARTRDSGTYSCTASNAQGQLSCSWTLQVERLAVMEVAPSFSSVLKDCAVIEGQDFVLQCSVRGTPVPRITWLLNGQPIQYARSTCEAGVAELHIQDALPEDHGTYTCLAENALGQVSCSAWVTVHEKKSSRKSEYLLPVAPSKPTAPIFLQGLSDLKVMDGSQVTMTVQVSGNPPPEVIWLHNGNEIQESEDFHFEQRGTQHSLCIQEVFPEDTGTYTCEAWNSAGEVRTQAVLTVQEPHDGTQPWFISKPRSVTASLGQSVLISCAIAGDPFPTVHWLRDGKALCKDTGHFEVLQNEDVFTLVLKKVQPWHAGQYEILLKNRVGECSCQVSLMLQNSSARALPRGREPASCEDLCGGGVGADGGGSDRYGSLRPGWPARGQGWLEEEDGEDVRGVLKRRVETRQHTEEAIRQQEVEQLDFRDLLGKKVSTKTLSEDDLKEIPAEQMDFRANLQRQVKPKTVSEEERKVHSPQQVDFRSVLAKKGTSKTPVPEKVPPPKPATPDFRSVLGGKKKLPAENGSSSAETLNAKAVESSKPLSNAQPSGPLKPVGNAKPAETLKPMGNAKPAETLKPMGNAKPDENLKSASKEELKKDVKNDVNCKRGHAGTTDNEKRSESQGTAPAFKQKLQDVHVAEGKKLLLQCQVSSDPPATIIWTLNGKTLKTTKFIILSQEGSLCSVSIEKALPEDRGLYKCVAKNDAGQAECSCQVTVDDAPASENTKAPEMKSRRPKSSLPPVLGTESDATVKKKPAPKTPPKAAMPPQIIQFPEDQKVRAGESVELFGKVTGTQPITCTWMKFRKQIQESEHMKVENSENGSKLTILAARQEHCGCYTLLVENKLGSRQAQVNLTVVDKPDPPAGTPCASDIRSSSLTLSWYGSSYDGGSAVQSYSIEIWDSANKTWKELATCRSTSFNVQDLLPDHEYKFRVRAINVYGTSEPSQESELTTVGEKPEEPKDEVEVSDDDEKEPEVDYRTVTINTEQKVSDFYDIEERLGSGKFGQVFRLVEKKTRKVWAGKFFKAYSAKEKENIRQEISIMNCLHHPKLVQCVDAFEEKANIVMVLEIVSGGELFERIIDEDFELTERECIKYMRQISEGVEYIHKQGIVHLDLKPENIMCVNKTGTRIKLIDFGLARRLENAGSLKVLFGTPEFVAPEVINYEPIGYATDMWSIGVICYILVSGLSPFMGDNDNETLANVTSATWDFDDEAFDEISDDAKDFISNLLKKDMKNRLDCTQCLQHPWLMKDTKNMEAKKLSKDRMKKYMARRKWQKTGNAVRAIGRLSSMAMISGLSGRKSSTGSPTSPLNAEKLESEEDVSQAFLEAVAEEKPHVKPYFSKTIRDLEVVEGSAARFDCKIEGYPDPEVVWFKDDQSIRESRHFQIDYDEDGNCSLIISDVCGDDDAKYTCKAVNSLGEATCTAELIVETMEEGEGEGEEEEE
Procedure: as §1, §2

JNK3 [2] = target: T1, JNK3; assay: ThermoFisher SelectScreen, JNK3; assay type: binding
PIP5K1C = target: T5, PIP5K1C (Homo sapiens, UniProt O60331); assay: ThermoFisher SelectScreen, PIP5K1C; assay type: binding; details: Table 4
T5 construct: purchased ThermoFisher (SelectScreen, outsourced service)
T5 sequence (O60331 whole entry): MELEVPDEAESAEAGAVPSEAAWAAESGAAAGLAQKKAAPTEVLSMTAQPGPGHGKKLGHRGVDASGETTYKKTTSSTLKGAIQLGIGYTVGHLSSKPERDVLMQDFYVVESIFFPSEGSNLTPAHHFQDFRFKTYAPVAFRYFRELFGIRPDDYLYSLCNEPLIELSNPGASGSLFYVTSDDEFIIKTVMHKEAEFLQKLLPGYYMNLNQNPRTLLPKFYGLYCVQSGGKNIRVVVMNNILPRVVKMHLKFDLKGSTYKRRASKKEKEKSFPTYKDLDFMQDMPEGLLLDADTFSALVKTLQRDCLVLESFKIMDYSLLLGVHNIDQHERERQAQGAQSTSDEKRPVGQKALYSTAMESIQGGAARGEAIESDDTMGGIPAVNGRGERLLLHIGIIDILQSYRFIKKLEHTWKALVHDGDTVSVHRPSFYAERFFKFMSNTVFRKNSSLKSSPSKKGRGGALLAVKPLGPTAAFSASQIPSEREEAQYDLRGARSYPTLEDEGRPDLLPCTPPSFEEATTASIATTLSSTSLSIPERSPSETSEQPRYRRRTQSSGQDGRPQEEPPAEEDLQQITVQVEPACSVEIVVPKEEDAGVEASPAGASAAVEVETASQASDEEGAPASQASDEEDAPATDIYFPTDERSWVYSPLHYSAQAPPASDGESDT
Procedure: as §1, §2

MEK5 = target: T6, MEK5 (Homo sapiens, UniProt Q13163); assay: ThermoFisher SelectScreen, MEK5; assay type: binding; details: Table 4
T6 construct: purchased ThermoFisher (SelectScreen, outsourced service)
T6 sequence (Q13163 1-448): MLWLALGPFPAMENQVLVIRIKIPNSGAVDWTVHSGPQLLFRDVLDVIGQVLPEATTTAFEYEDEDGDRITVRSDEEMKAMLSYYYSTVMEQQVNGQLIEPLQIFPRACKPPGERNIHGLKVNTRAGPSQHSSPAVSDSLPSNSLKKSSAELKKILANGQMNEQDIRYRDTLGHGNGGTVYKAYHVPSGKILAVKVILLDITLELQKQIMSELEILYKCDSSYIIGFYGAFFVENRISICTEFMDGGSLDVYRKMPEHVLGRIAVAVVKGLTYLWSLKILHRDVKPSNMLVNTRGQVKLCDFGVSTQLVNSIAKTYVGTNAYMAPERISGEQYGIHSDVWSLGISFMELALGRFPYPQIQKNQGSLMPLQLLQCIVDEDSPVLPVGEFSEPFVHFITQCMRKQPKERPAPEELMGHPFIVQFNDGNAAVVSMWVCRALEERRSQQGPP
Procedure: as §1, §2

JNK3 [3] = target: T1, JNK3; assay: Promega NanoBRET intracellular target engagement (tracer K10 displacement), JNK3; assay type: cell-based
[4] = In vitro metabolism in mouse liver microsomes; details: mouse, microsomes
Procedure: The target product profile seeks to deliver JNK inhibitor as a once daily oral administration. To prioritize compounds for further development, in vitro metabolism of several CDD JNK inhibitors were determined to approximate the plasma half-life and the rate of metabolism of the compounds in vivo.

CLK2 = target: T7, CLK2 (Homo sapiens, UniProt P49760); assay: ThermoFisher SelectScreen, CLK2; assay type: binding
T7 construct: purchased ThermoFisher (SelectScreen)
T7 sequence (P49760 whole entry): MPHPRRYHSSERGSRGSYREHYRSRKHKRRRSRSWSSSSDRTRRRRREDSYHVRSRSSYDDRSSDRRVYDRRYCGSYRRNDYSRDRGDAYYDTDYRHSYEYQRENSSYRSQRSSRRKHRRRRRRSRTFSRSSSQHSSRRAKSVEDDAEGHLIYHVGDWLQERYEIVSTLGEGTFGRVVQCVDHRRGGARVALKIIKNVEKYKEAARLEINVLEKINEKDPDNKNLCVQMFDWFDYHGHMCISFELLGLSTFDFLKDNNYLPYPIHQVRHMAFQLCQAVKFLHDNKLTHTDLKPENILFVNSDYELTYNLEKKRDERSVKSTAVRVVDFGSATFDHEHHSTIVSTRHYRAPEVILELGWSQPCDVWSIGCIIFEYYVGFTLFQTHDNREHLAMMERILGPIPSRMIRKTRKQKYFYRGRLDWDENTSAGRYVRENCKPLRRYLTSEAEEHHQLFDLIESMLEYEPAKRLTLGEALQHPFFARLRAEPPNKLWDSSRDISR

JNK2 [5] = target: T8, JNK2 (Homo sapiens, UniProt P45984); assay: JNK2 kinase (intrinsic ATPase, Kinase-Glo) assay; assay type: biochemical; details: Table 3a; read-out: Kd JNK2
T8 sequence (P45984 whole entry): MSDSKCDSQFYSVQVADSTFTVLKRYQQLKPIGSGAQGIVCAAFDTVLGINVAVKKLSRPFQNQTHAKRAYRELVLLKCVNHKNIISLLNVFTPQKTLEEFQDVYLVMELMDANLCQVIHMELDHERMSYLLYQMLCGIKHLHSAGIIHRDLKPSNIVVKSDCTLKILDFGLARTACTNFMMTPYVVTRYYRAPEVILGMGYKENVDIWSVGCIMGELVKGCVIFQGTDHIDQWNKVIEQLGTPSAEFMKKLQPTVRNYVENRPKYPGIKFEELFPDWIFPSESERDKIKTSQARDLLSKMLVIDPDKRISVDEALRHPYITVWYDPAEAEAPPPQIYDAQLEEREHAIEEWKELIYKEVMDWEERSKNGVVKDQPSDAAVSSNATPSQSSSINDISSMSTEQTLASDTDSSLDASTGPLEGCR

JNK2 [6] = target: T8, JNK2; assay: Promega NanoBRET intracellular target engagement (tracer K10 displacement), JNK2; assay type: cell-based
CSNK1G1 = target: T9, CSNK1G1 (Homo sapiens, UniProt Q9HCP0); assay: ThermoFisher SelectScreen, CSNK1G1; assay type: binding
T9 construct: purchased ThermoFisher (SelectScreen)
T9 sequence (Q9HCP0 whole entry): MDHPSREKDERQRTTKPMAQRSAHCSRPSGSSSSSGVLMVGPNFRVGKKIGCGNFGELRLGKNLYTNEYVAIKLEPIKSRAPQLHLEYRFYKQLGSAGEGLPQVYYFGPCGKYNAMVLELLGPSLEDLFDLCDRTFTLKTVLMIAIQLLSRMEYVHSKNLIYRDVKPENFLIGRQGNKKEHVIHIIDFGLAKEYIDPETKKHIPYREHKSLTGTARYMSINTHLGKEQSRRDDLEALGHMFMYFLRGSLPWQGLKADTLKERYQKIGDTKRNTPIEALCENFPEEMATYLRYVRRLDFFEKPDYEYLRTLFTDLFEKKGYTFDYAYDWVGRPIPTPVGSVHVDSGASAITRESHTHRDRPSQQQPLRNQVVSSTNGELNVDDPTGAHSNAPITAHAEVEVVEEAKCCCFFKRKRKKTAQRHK
Procedure: as §1, §2
No activity of CDD-2728 was detected for Atypical, Mutant, or Lipid kinases. To confirm CDD-2728 inhibition results in the KINOMEscan analysis, individual binding assays were performed on the kinases to which CDD-2728 bound using ThermoFisher SelectScreen.

Row | SMILES | Kd (JNK3 [1]) [nM] | Kd (DYRK2) [nM] | Kd (CSNK1A1) [nM] | solubility (Solubility) [µM] | Kd (MYLK) [nM] | Kd (JNK3 [2]) [nM] | Kd (PIP5K1C) [nM] | Kd (MEK5) [nM] | IC50 (JNK3 [3]) [nM] | half-life [4] [min] | Kd (CLK2) [nM] | Kd (JNK2 [5]) [nM] | IC50 (JNK2 [6]) [nM] | Kd (CSNK1G1; Table 4) [nM] | Kd (CSNK1G1; Table 5) [nM]
1 | CNCc1ccc(NC(=O)c2ccn3ncc(-c4cnc5[nH]ccc5c4)c3c2)cc1 [CDD-2346, N-(4-((methylamino)methyl)phenyl)-3-(1H-pyrrolo[2,3-b]pyridin-5-yl)pyrazolo[1,5-a]pyridine-5-carboxamide] | 0.65 ± 0.16 | 78 | 85 | 167 (≈ 66.1 µg/mL) | 442 | 0.65 | 811 | 579 | 3000 | 68.7 | 34 | 0.94 ± 0.22 | 1700 | 133 | 
2 | CN(C)Cc1ccc(NC(=O)c2ccn3ncc(-c4cnc5[nH]ccc5c4)c3c2)cc1 [CDD-2482, N-(4-((dimethylamino)methyl)phenyl)-3-(1H-pyrrolo[2,3-b]pyridin-5-yl)pyrazolo[1,5-a]pyridine-5-carboxamide] | 0.45 ± 0.04 | 48 | 70.5 | 176 (≈ 72.2 µg/mL) | 501 | 0.45 | 13200 | 547 |  | 16.6 | 17 | 0.74 ± 0.09 |  | 52 | 
3 | O=C(Nc1ccc(F)cc1)c1ccn2ncc(-c3cnc4[nH]ccc4c3)c2c1 [CDD-2486, N-(4-fluorophenyl)-3-(1H-pyrrolo[2,3-b]pyridin-5-yl)pyrazolo[1,5-a]pyridine-5-carboxamide] | 0.86 ± 0.05 | 288 | 41300 | 0.3 (≈ 0.111 µg/mL) | 942 | 4.34 | 1150 | 4040 | 468 | 10.8 | 130 | 0.67 ± 0.09 | 442 | 14400 | 
4 | CN(C)C(=O)c1cc(NC(=O)c2cc3c(-c4cnc5[nH]ccc5c4)cccc3s2)ccc1O [CDD-2728, N-(3-(dimethylcarbamoyl)-4-hydroxyphenyl)-4-(1H-pyrrolo[2,3-b]pyridin-5-yl)benzo[b]thiophene-2-carboxamide] |  |  |  | 19.4 (≈ 8.86 µg/mL) |  |  |  |  | 534 | 85.2 | 240 |  | 570 |  | 4400
